The source made the active and inactive calls. No cut-off for these calls is given here.

In ChEMBL document CHEMBL4831514, “Novel betulin dicarboxylic acid ester derivatives as potent antiviral agents: Design, synthesis, biological evaluation, structure-activity relationship and in-silico study” (Eur J Med Chem, 2021) one finds CC20 and Activity data, which are given here for 16 molecules.

For one data set, the system named is A549. Nature of the data set: Cytotoxicity against human A549 cells assessed as reduction in cell viability incubated for 48 hrs by MTT assay. To be noted: a549, 48 h. Type of data set: cell-based. For orientation: Formazan colour is commonly taken as a measure of viable cells.
For a further data set, the system named is MDCK. In words: Cytotoxicity against MDCK cells assessed as reduction in cell viability incubated for 72 hrs by MTT assay. Type of data set: cell-based, Canis lupus familiaris. To be noted: dog, mdck, 72 h.
Data set [1] deals with Human alphaherpesvirus 1. In words: Antiviral activity against Human herpesvirus-1 MacIntyre infected in A549 cells assessed as inhibition of viral adsorption at early stage of replication treated for 1 hr during viral infection followed by replacement with fresh medium and measured after 48 hrs by MTT assay. Type of data set: functional, organism-based.
The subject of the next data set is Enterovirus E. In words: Antiviral activity against Enterovirus E LCR-4 infected in A549 cells assessed as inhibition of viral adsorption at early stage of replication treated for 1 hr during viral infection followed by replacement with fresh medium and measured after 72 hrs by MTT assay. It is filed as functional, organism-based.
For data set [2], the system named is Human adenovirus 5. Nature of the data set: Antiviral activity against Human adenovirus 5 Adenoid 75 infected in A549 cells assessed as inhibition of viral adsorption at early stage of replication treated for 1 hr during viral infection followed by replacement with fresh medium and measured after 72 hrs by MTT assay. It is filed as functional, organism-based.

For data set [3], the system named is Vesicular stomatitis virus. In words: Antiviral activity against Vesicular stomatitis virus Indiana infected in A549 cells assessed as reduction in virus titer preincubated for 24 hrs followed by viral infection and measured after 72 hrs by microscopic analysis. It is filed as functional, organism-based.
In data set [4] the test system is Human alphaherpesvirus 1. In words: Antiviral activity against Human herpesvirus 1 MacIntyre infected in A549 cells assessed as reduction in virus titer preincubated for 24 hrs followed by viral infection and measured after 72 hrs by microscopic analysis. It is filed as functional, organism-based.
The subject of data set [5] is Human adenovirus 5. Nature of the data set: Antiviral activity against Human adenovirus 5 Adenoid 75 infected in A549 cells assessed as reduction in virus titer preincubated for 24 hrs followed by viral infection and measured after 72 hrs by microscopic analysis. It is filed as functional, organism-based.

With `C=C(C)[C@@H]1CC[C@]2(COC(=O)CCC(=O)N3CCOCC3)CC[C@]3(C)[C@H](CC[C@@H]4[C@@]5(C)CC[C@H](O)C(C)(C)[C@@H]5CC[C@]43C)[C@@H]12`, the CC20 in the data set on A549 stood at 9.63 µM; in the data set on MDCK, 4.78 µM. For the same molecule, the result (with Human alphaherpesvirus 1 [1]; in the data set on Enterovirus E; in the data set with Human adenovirus 5 [2]; in data set [3]; with Human alphaherpesvirus 1 [4]; in the data set with Human adenovirus 5 [5]) was inactive.
With `C#CC1(NC(=O)CCCC(=O)OC[C@]23CCC(C(=C)C)[C@@H]2[C@H]2CC[C@@H]4[C@@]5(C)CC[C@H](O)C(C)(C)[C@@H]5CC[C@@]4(C)[C@]2(C)CC3)CCCCC1` (single isomer, unassigned), the CC20 in the data set on A549 and in the data set on MDCK was 108.7 µM in each case. Further, the outcome (in the data set with Human alphaherpesvirus 1 [1]; in the data set with Enterovirus E; with Human adenovirus 5 [2]; in data set [3]; in the data set on Human alphaherpesvirus 1 [4]; in the data set with Human adenovirus 5 [5]) was inactive.
Regarding `C#CCNC(=O)CCC(=O)OC[C@]12CC[C@@H](C(=C)C)C1[C@H]1CC[C@@H]3[C@@]4(C)CC[C@H](O)C(C)(C)[C@@H]4CC[C@@]3(C)[C@]1(C)CC2` (single isomer, unassigned), the figures for the CC20 in the data set on A549 and in the data set on MDCK were 10.78 µM and 5.34 µM, respectively. For the same molecule, the result (in the data set with Human alphaherpesvirus 1 [1]; in the data set on Enterovirus E; with Human adenovirus 5 [2]; in data set [3]; in the data set on Human alphaherpesvirus 1 [4]; with Human adenovirus 5 [5]) was inactive.
For `C=C(C)[C@@H]1CC[C@]2(COC(=O)CCCC(=O)N3CCSCC3)CC[C@]3(C)[C@H](CC[C@@H]4[C@@]5(C)CC[C@H](O)C(C)(C)[C@@H]5CC[C@]43C)[C@@H]12`, the CC20 in the data set with A549 was 122.7 µM; with MDCK it was 61.35 µM. Also, the outcome (in the data set on Human alphaherpesvirus 1 [1]; with Enterovirus E; in the data set with Human adenovirus 5 [2]; in data set [3]; in the data set with Human alphaherpesvirus 1 [4]; with Human adenovirus 5 [5]) was inactive.
Regarding `Nc1ccn(C[C@@H](CO)OCP(=O)(O)O)c(=O)n1.O.O` [CIDOFOVIR], the CC20 in the data set on A549 was 358.42 µM. The result with Human alphaherpesvirus 1 [1], in the data set with Enterovirus E and with Human adenovirus 5 [2] was inactive.
For `C=C(C)[C@@H]1CCC2(COC(=O)CCCCCCCCCC(=O)N3CCSCC3)CC[C@]3(C)[C@H](CC[C@@H]4[C@@]5(C)CC[C@H](O)C(C)(C)[C@@H]5CC[C@]43C)[C@@H]12` (single isomer, unassigned), the CC20 in the data set on A549 and in the data set with MDCK was 114.81 µM each time. Also, the outcome (in the data set with Human alphaherpesvirus 1 [1]; in the data set on Enterovirus E; with Human adenovirus 5 [2]; in data set [3]; in the data set with Human alphaherpesvirus 1 [4]; with Human adenovirus 5 [5]) was inactive.
With `C=C(C)[C@@H]1CC[C@]2(CO)CC[C@]3(C)[C@H](CC[C@@H]4[C@@]5(C)CC[C@H](O)C(C)(C)[C@@H]5CC[C@]43C)[C@@H]12` [BETULIN], the CC20 in the data set with A549 and with MDCK was 28.22 µM in each case. The outcome (in the data set with Human alphaherpesvirus 1 [1]; in the data set on Enterovirus E; in the data set on Human adenovirus 5 [2]; in data set [3]; in the data set on Human alphaherpesvirus 1 [4]; in the data set on Human adenovirus 5 [5]) was inactive.
`C#CCNC(=O)CCCC(=O)OC[C@]12CC[C@@H](C(=C)C)[C@@H]1[C@H]1CC[C@@H]3[C@@]4(C)CC[C@H](O)C(C)(C)[C@@H]4CC[C@@]3(C)[C@]1(C)CC2`: the values for the CC20 in the data set with A549 and in the data set on MDCK were 42.09 µM and 1.18 µM, respectively. In addition, the result (in the data set on Human alphaherpesvirus 1 [1]; in the data set with Enterovirus E; in the data set with Human adenovirus 5 [2]; in data set [3]; with Human alphaherpesvirus 1 [4]; in the data set with Human adenovirus 5 [5]) was inactive.
In the case of `C=C(C)[C@@H]1CC[C@]2(COC(=O)CCC(=O)N3CCCCC3)CC[C@]3(C)[C@H](CC[C@@H]4[C@@]5(C)CCC(O)C(C)(C)[C@@H]5CC[C@]43C)[C@@H]12` (single isomer, unassigned), the CC20 in the data set on A549 came to 69.83 µM; with MDCK, 17.46 µM. Also, the outcome (with Human alphaherpesvirus 1 [1]; with Enterovirus E; in the data set on Human adenovirus 5 [2]; in data set [3]; in the data set with Human alphaherpesvirus 1 [4]; with Human adenovirus 5 [5]) was inactive.
On to `C=C(C)[C@@H]1CC[C@]2(COC(=O)CCC(=O)O)CC[C@]3(C)[C@H](CC[C@@H]4[C@@]5(C)CCC(O)C(C)(C)[C@@H]5CC[C@]43C)[C@@H]12` (single isomer, unassigned), for which the CC20 in the data set with A549 and in the data set with MDCK was 11.51 µM throughout. Also, the result (in the data set with Human alphaherpesvirus 1 [1]; in the data set with Enterovirus E; with Human adenovirus 5 [2]; in data set [3]; in the data set with Human alphaherpesvirus 1 [4]; in the data set on Human adenovirus 5 [5]) was inactive.
With `C#CC1(NC(=O)c2ccccc2C(=O)OC[C@]23CC[C@@H](C(=C)C)[C@@H]2[C@H]2CC[C@@H]4[C@@]5(C)CC[C@H](O)C(C)(C)[C@@H]5CC[C@@]4(C)[C@]2(C)CC3)CCCCC1`, the CC20 in the data set on A549 was 109.82 µM; in the data set on MDCK, 1.57 µM. The outcome (in the data set with Human alphaherpesvirus 1 [1]; in the data set with Enterovirus E; in the data set on Human adenovirus 5 [2]; in data set [3]; with Human alphaherpesvirus 1 [4]; in the data set with Human adenovirus 5 [5]) was inactive.
On to `C=C(C)[C@@H]1CC[C@]2(COC(=O)c3cccc(C(=O)N4CCSCC4)c3)CC[C@]3(C)[C@H](CC[C@@H]4[C@@]5(C)CC[C@H](O)C(C)(C)[C@@H]5CC[C@]43C)C12` (single isomer, unassigned), for which the CC20 in the data set on A549 and with MDCK was 117.79 µM throughout. For the same molecule, the result (with Human alphaherpesvirus 1 [1]; in the data set on Enterovirus E; with Human adenovirus 5 [2]; in data set [3]; with Human alphaherpesvirus 1 [4]; in the data set on Human adenovirus 5 [5]) was inactive.
For the molecule `C#CC1(NC(=O)c2cccc(C(=O)OC[C@]34CC[C@@H](C(=C)C)[C@@H]3[C@H]3CC[C@@H]5[C@@]6(C)CC[C@H](O)C(C)(C)[C@@H]6CC[C@@]5(C)[C@]3(C)CC4)c2)CCCCC1`, the CC20 in the data set on A549 and in the data set with MDCK was 104.82 µM each time. The result (in the data set with Human alphaherpesvirus 1 [1]; with Enterovirus E; with Human adenovirus 5 [2]; in data set [3]; with Human alphaherpesvirus 1 [4]; in the data set with Human adenovirus 5 [5]) was inactive.
Take `C#CCNC(=O)/C(C)=C/C(=O)OC[C@]12CC[C@@H](C(=C)C)[C@@H]1[C@H]1CC[C@@H]3[C@@]4(C)CC[C@H](O)C(C)(C)[C@@H]4CC[C@@]3(C)[C@]1(C)CC2`: the results for the CC20 with A549 and in the data set with MDCK were 10.56 µM and 84.46 µM, respectively. Besides, the result (with Human alphaherpesvirus 1 [1]; with Enterovirus E; with Human adenovirus 5 [2]; in data set [3]; in the data set with Human alphaherpesvirus 1 [4]; in the data set on Human adenovirus 5 [5]) was inactive.
With `C#CCNC(=O)CCCCCCCCCC(=O)OC[C@]12CC[C@@H](C(=C)C)[C@@H]1[C@H]1CC[C@@H]3[C@@]4(C)CC[C@H](O)C(C)(C)[C@@H]4CC[C@@]3(C)[C@]1(C)CC2`, the CC20 was 38.46 µM in the data set on A549 and 153.85 µM in the data set with MDCK. Moreover, the outcome (in the data set on Human alphaherpesvirus 1 [1]; in the data set with Enterovirus E; with Human adenovirus 5 [2]; in data set [3]; in the data set on Human alphaherpesvirus 1 [4]; in the data set on Human adenovirus 5 [5]) was inactive.
Take `C=C(C)[C@@H]1CC[C@]2(COC(=O)/C=C(\C)C(=O)O)CC[C@]3(C)[C@H](CC[C@@H]4[C@@]5(C)CC[C@H](O)C(C)(C)[C@@H]5CC[C@]43C)[C@@H]12`: the CC20 in the data set on A549 turned out to be 11.26 µM; in the data set with MDCK it was 5.63 µM. In addition, the outcome (in the data set on Human alphaherpesvirus 1 [1]; in the data set on Enterovirus E; with Human adenovirus 5 [2]; in data set [3]; with Human alphaherpesvirus 1 [4]; with Human adenovirus 5 [5]) was inactive.
